A short description of data set [1]: Hygroscopicity of acid addition salts. The following applies: acid addition salts as isolated. It is filed as physicochemical. The source says: The hydrochloride salts of Compounds 6, 8a, 11, 13, 14, 16, 18 and 21 were identified as hygroscopic. […] The basis for this assumption was that the addition salt of an aromatic acid would be less hygroscopic than that of the corresponding hydrochloric acid addition salt. Thus, the butyl ester, Compound 20 was Boc-deprotected with 3 equivalents of benzenesulfonic acid in […].

Data set [2] deals with MPTP sub-acute model mice. Briefly: Experiment 2: observed vitality signs (level of motion, fur appearance), MPTP sub-acute model. On Fur, observer 1: key: Split fur +; Shiny fur +++. On Fur, observer 2: key: Split fur +; Shiny fur +++. On Fur, observer 3: key: Split fur +; Shiny fur +++. On Fur, observer 4: key: Split fur +; Shiny fur +++. On Vitality, observer 1: key: slow motions +; normal motion +++. On Vitality, observer 2: key: slow motions +; normal motion +++. On Vitality, observer 3: key: slow motions +; normal motion +++. On Vitality, observer 4: key: slow motions +; normal motion +++. It is filed as in vivo, C57/BL/6J mice. The source says: FIG. […] 6 hereinabove. Six independent observers estimated the level of mice vitality by the level of motion of the mice (light purple, marked vitality) and fur appearance (dark purple). The results are an average of the observers' reports.

Data set [3] concerns MPTP acute model mice. The data set can be described thus: Experiment 1: open field test, MPTP acute model (AN-490). The following applies: for motility / motor activity in open field: MPTP treated mice, L-DOPA 25 mg/kg or AN-490 67.5 mg/kg by oral gavage, days 3, 6, 8, 16. It is filed as in vivo, C57/BL/6J mice. As for the experimental part: The MPTP neurotoxin was administered on day 0, with 4 IP injections (each injection contained 20 mg/kg, 5 ml/kg) in saline. The various treatments or saline were administered on days 0, 1, 2, 3, 6, 7, 13 and 16. Each group of mice (n=6) was subjected, on days 3, 6, 8 and 16, to the open field test, and the following parameters were scored: the distance moved (FIGS. 2A and 2B), velocity (FIGS. 2C and 2D), time spent immobile (FIGS. 2E and 2F) and time spent in a high level of mobility (FIGS. 2G and 2H; strong mobility) during a period of 20 minutes. FIGS. 2A, 2C, 2E and 2G present the data obtained for the control mice, mice treated with L-DOPA and mice treated with AN-490. FIGS. 2B, 2D, 2F and 2H present the data obtained for control mice or mice treated with MPTP, MPTP with L-DOPA and MPTP with AN-490.
Acute model: On day 1, C57/BL mice received 4× […] injections of 20 mg/kg MPTP-HCl (Sigma), dissolved in saline solution, at 2 hours intervals.
The open field test measures behavioral responses, locomotor activity, hyperactivity, and exploratory behaviors. Open field test is also used as a measure of anxiety. Mice tend to avoid brightly illuminated, novel, open spaces, so the open field environment acts as an anxiogenic stimulus and allows for measurement of anxiety-induced locomotor activity and exploratory behaviors. The apparatus for the open field test is a square (0.5×0.5 meter) made of white melamine. All activities were recorded by a video camera mounted above the open field and scored in real-time by a motion-recognition software package (Noldus, Holland) that detects and analyzes the movements of the animals. The video image of the open field arena was partitioned into equal-size squares zone. Total distance, average speed, rearing/elongation behavior, and time spent in various parts of the field (e.g. the border areas vs. mid-area) were measured. Testing was carried out in a temperature, noise and light controlled room.

Data set [4] concerns MPTP sub-acute model mice. Briefly: Experiment 2: tyrosine hydroxylase immunostaining of striatum and substantia nigra, MPTP sub-acute model. The following applies: GABA 18.4 mg/kg, L-DOPA 30 mg/kg + GABA 18.4 mg/kg, AN-490 81 mg/kg per os, days 29-30. It is filed as in vivo, C57/BL/6J mice. The protocol: Shown are microphotograph of the striatum and substantia-nigra of mice receiving saline (FIG. 8A, Naive), MPTP+saline (FIG. 8B, MPTP) MPTP+GABA.HCl 18.4 mg/kg (FIG. 8C, MPTP+GABA), MPTP+L-DOPA 30 mg/kg (FIG. 8D, MPTP+DOPA), MPTP+L-DOPA 30 mg/kg+GABA 18.4 mg/kg (FIG. 8E, MPTP+Dopa+GABA) and MPTP+AN-490 81 mg/kg (FIG. 8F, MPTP+AN490). Paraffin-embedded horizontal sections of the stratium and substantia nigra were stained with hematoxylan and Tyrosine Hyroxylase antibodies. The magnification is ×100 and in the insert ×200.
Animals under deep anesthesia were perfused through the aorta with phosphate-buffered saline (PBS), followed by a cold fixative consisting of 4% paraformaldehyde, 0.35% glutaraldehyde and 0.2% picric acid in phosphate buffer. After perfusion, the brain were removed and fixed in 4% paraformaldehyde for 24 hours, washed with PBS, dehydrated in increasing alcohol concentrations and embedded in paraffin. Paraffin-embedded tissues were processed as described [Rephaeli et al. Int J Cancer. 2005 Aug. 20; 116:226-35]. The avidin-biotin nonspecific binding was prevented by a blocking kit according to the manufacturer's protocol (Vector, USA). The sections were further incubated at 4° C. overnight with the primary antibody mouse monoclonal tyrosine hydroxylase (Visionbiosystem, Newcastle, UK, diluted 1:50). The secondary antibody was biotin conjugated goat anti-mouse IgG (Santa Cruz). Slides were then stained with ABC peroxidase system, developed with diaminobenzidine (DAB), chromogene substrate (Vector Laboratories, Inc. The slides were examined using an Olympus BX52 light microscope and images were taken with Olympus DP50 digital camera system. Images were analyzed by the ImagePro Plus 5.1 software. At least 12 different fields in each experimental group were analyzed. The Mean density±SEM was calculated for the striatum and the mean cell number±SEM was calculated for the SN.

Data set [5] has as its system MPTP acute model mice. The data set can be described thus: Experiment 3: tyrosine hydroxylase immunohistochemistry of striatum and substantia nigra, MPTP acute model. It is filed as in vivo, C57/BL/6J mice. The following applies: overall conclusion. The protocol:
FIG. 13 presents a bar graph showing the effect of BL-1023* administration on the neuronal density in the stratium, as assessed from Tyrosine Hydroxylase staining. Mice were administered the following treatments: saline (control), MPTP+saline (MPTP), MPTP+L-DOPA 30 mg/kg (MPTP+L-DOPA), MPTP+L-DOPA 30 mg/kg+GABA 18.4 mg/kg (MPTP+L-DOPA+GABA), MPTP+BL1023* 48.4 mg/kg (denoted MPTP+1023 30) and MPTP+BL-1023* 24.2 mg/kg (denoted MPTP+BL1023 15). The MPTP neurotoxin was administered on day 0, with 4 IP injections (each injection contained 20 mg/kg, 5 ml/kg) in saline. The various treatments or saline were administered on day 7, 9, 11 and 13 (total of 4 treatments). Three mice, from each treatment group, and four mice from the control group, were sacrificed on day 15 and subjected to immunohystochemistry for tyrosine hydroxylase of the stratium according to the protocol described in the Examples section hereinbelow. The intensity of Tyrosine Hyroxylase (TH) staining, in the striatum of the treated mice is presented as the average of Intensity Optical Density (IOD) and SE obtained for the total stained area.
FIG. 15 presents a bar graph showing the effect of BL-1023* administration on the neuronal density in the substantia nigra, as assessed from Tyrosine Hydroxylase staining. […]

The conditions of data set [6]: compared with other esters such as the ethyl or octyl esters; cited from earlier work.
[7] abbreviates: MPTP sub-acute model, per os treatment.
Setting [8] is: listed as Compound 21, tri-hydrochloride.
The mark [9] stands for this setting: MPTP+AN-490 67.5 mg/kg, compared to the other tested groups.

Entries after “also recorded” stand apart in the source; their conditions may differ. Counter-ions that a name gives are not always drawn.

What is called melting point is the temperature, or range, at which the solid turns liquid. For `CCCCOC(=O)[C@@H](N)Cc1ccc(OC(=O)CCCN)c(OC(=O)CCCN)c1` (as salt: hydrochloride) [AN-490, Butyl-2-amino-3-(3,4-phenyl-di[4-aminobutanoate])propanoate tri-hydrochloride], the melting point is 175 to 176 °C.
On the same count and under the same terms, in the case of `CCCCOC(=O)C(Cc1ccc(O)c(O)c1)NC(=O)CCCN` (stereo not shown) (as salt: hydrochloride) [BL-1023*, Butyl-2-(4-Aminobutanamide)-3-(3,4-dihydroxyphenyl)propanoate hydrochloride] it was 77 °C; in that of `CCCCOC(=O)C(Cc1ccc(OC(=O)CCCN)c(OC(=O)CCCN)c1)NC(=O)CCCN` (stereo not shown) (as salt: hydrochloride) [Compound 18], 74 to 75 °C.
As for `CCCCOC(=O)[C@@H](N)Cc1ccc(OC(=O)CCCN)c(OC(=O)CCCN)c1` [AN-490, Butyl-2-amino-3-(3,4-phenyl-di[4-aminobutanoate])propanoate tri-hydrochloride], the hygroscopicity result in data set [1] is “hygroscopic”. Also, in data set [2] (setting [7]), the “Fur, observer 1” value is “+”; the “Fur, observer 2” value is listed as “+”; the “Vitality, observer 1” value is “+++”; the “Vitality, observer 2” value is “+++”. In data set [2] (setting [7]), the “Vitality, observer 3” value is reported as “+++” and the “Vitality, observer 4” value is on record as “+++”. Moreover, in data set [2] (MPTP+AN-490 81 mg/kg per os), the “vitality signs (fur appearance)” value is “reduced vitality signs”. Further, the “motility / motor activity in open field” value in data set [3] (setting [8]) is given as “significant increase in motility”. In data set [3] (tri-hydrochloride), the “motility / motor activity in open field” value is listed as “continuous increase in motor activity”. Further, in data set [3] (setting [9]), the “strong mobility in open field” value was “highly mobile”, the “time spent immobile in open field” value is listed as “immobile for a short time” and the “velocity in open field” value is “highest velocity”. Moreover, in data set [4] (setting [8]), the “TH staining in the substantia nigra and striatum (IHC)” value (shortened to “TH staining”) is “enhanced neuronal density”. The “TH staining” value in data set [4] (tri-hydrochloride) is recorded as “protection or restoration of the normal morphology; also recorded: TH protective activity”.
For `COC(=O)[C@@H](N)Cc1ccc(O)c(O)c1.Cl` [Compound 6, L-DOPA methyl ester hydrochloride], in data set [1], the hygroscopicity result is listed as “hygroscopic”.
Still for that read-out and setting: in the case of `COC(=O)C(Cc1ccc(O)c(O)c1)NC(=O)CCCN.Cl` (stereo not shown) [Compound 8a, methyl-2-(4-aminobutanamide)-3-(3,4-dihydroxyphenyl)propanoate hydrochloride] it was “hygroscopic”.
As to `COC(=O)C(N)Cc1ccc(OC(=O)CCCN)c(OC(=O)CCCN)c1.Cl` (stereo not shown) [Compound 11, methyl-2-amino-3-(3,4-phenyl-di-[4-aminobutanoate])propanoate-trihydrochloride], the melting point is 185 °C. The hygroscopicity entry in data set [1] is listed as “hygroscopic”.
The like results for `COC(=O)C(Cc1ccc(OC(=O)CCCN)c(OC(=O)CCCN)c1)NC(=O)CCCN.Cl` (stereo not shown) [Compound 13] were, in that order, 87 °C and “hygroscopic”.
Take `CCCCOC(=O)C(N)Cc1ccc(O)c(O)c1.Cl` (stereo not shown) [Compound 14, Butyl-2-amino-3-(3,4-dihydroxyphenyl)propanoate hydrochloride]: in data set [1], the hygroscopicity result is recorded as “hygroscopic”.
The same measure, in the same setting: in the case of `CCCCOC(=O)C(Cc1ccc(OC(=O)CCCN)c(OC(=O)CCCN)c1)NC(=O)CCCN` (stereo not shown) [Compound 18] it was “hygroscopic”.
As for `NCCCC(=O)O` [GABA, 4-amino-butyric acid], in data set [2] (setting [7]), the “Fur, observer 1” value is reported as “+++”; the “Fur, observer 3” value is given as “+++”; the “Fur, observer 4” value is “+++”; the “Vitality, observer 1” value was “+++”. Moreover, in data set [2] (setting [7]), the “Vitality, observer 2” value is “+++”; the “Vitality, observer 3” value is “+++”; the “Vitality, observer 4” value is “+++”. In addition, in data set [5], the “protection of TH positive cells” value is listed as “protect the TH positive cells”. Moreover, in data set [4], the “TH staining” value is listed as “protection or restoration of the normal morphology”.
Regarding `CCCCOC(=O)[C@@H](N)Cc1ccc(O)c(O)c1` [L-DOPA butyl ester], the skin permeability result in data set [6] was “better skin permeability”.
Take “Butyl-2-amino-3-(3,4-phenyl-di[4-aminobutanoate])propanoate tri-benzenesulfonate salt [Compound 22]”: the hygroscopicity entry in data set [1] is “much less hygroscopic”.

Source of the values: patent publication US8722923B2, “Conjugates for treating neurodegenerative diseases and disorders” (Ramot at Tel-Aviv University Ltd., priority 2008, dated 2014).
